Measured values from patent publication US20240189316A1, “DEUTERATED ANALOGS OF ETIFOXINE AND METHODS OF ADMINISTRATION WITHOUT AUTOINDUCTION OF METABOLISM” (Gaba Therapeutics Inc., priority 2022, published 2024).

Experiments:
[1] = Stability in human liver microsomes; format: in vitro ADME; conditions: for half-life: read-out: T½
[2] = Stability in rat liver microsomes; format: in vitro ADME; conditions: for half-life: read-out: T½
[3] = Stability in mouse liver microsomes; format: in vitro ADME; conditions: for half-life: read-out: T½
[4] = Phase 1 multiple-ascending dose study, plasma pharmacokinetics in healthy subjects; format: in vivo, human; parameters: Geometric mean trough concentration: unit not given here
Procedure: The first dose of study drug was given on Day 1. On Days 1 through 6, subjects subsequently received two (q12h) oral doses of study drug each day. A final single dose of study drug was given on Day 7. Each dose of study drug was given with a 240 mL glass of water at the end of ingestion of a standard meal. The meal was provided 30 minutes before dosing and was completed within 30 minutes or less. On Day 1 and Day 7, subjects were required to fast for 8 hours before the morning meal dose and for 2 hours post dose (water was freely available during this time).

[5] = Plasma concentration-time profile following 50 mg/kg GRX-917 and etifoxine in rats (FIG. 1); format: in vivo, rat
[6] = cited from earlier work

## [2H]C([2H])([2H])C([2H])([2H])NC1=Nc2ccc(Cl)cc2C(C)(c2ccccc2)O1 (racemic) [Deuterated Etifoxine, 6-chloro-N-(ethyl-d5)-4-methyl-4-phenyl-4H-3,1-benzoxazin-2-amine]
[1]
  microsomal CLint: 170 µL/min/mg
  half-life: 41 min
[2]
  microsomal CLint: 503 µL/min/mg
  half-life: 14 min
[3]
  microsomal CLint: 464 µL/min/mg
  half-life: 15 min
[4]; 100 mg bid
  Induction of metabolism: did not induce metabolism
[4]; 100 mg q12 h, Day 1
  Geometric mean trough concentration: 11.6
[4]; 100 mg q12 h, Day 2
  Geometric mean trough concentration: 36.1
[4]; 100 mg q12 h, Day 4
  Geometric mean trough concentration: 39.3
[4]; 100 mg q12 h, Day 5
  Geometric mean trough concentration: 31.9
[4]; 100 mg q12 h, Day 6
  Geometric mean trough concentration: 34.0
[4]; 100 mg q12 h, Day 7 (12-hr post-dose)
  Geometric mean trough concentration: 27.1
[4]; 100 mg q12 h, Day 7 (pre-dose)
  Geometric mean trough concentration: 27.7
[4]; 150 mg bid (twice daily)
  Induction of metabolism: induces metabolism
[4]; 150 mg q12 h, Day 1
  Geometric mean trough concentration: 28.1
[4]; 150 mg q12 h, Day 2
  Geometric mean trough concentration: 43.8
[4]; 150 mg q12 h, Day 4
  Geometric mean trough concentration: 44.5
[4]; 150 mg q12 h, Day 5
  Geometric mean trough concentration: 39.2
[4]; 150 mg q12 h, Day 6
  Geometric mean trough concentration: 37.7
[4]; 150 mg q12 h, Day 7 (12-hr post-dose)
  Geometric mean trough concentration: 31.4
[4]; 150 mg q12 h, Day 7 (pre-dose)
  Geometric mean trough concentration: 33.3
[4]; 200 mg q12 h, Day 1
  Geometric mean trough concentration: 42.8
[4]; 200 mg q12 h, Day 2
  Geometric mean trough concentration: 72.3
[4]; 200 mg q12 h, Day 4
  Geometric mean trough concentration: 67.2
[4]; 200 mg q12 h, Day 5
  Geometric mean trough concentration: 62.4
[4]; 200 mg q12 h, Day 6
  Geometric mean trough concentration: 53.7
[4]; 200 mg q12 h, Day 7 (12-hr post-dose)
  Geometric mean trough concentration: 51.4
[4]; 200 mg q12 h, Day 7 (pre-dose)
  Geometric mean trough concentration: 58.9
[4]; 300 mg q12 h, Day 1
  Geometric mean trough concentration: 54.9
[4]; 300 mg q12 h, Day 2
  Geometric mean trough concentration: 87.4
[4]; 300 mg q12 h, Day 4
  Geometric mean trough concentration: 71.0
[4]; 300 mg q12 h, Day 5
  Geometric mean trough concentration: 70.0
[4]; 300 mg q12 h, Day 6
  Geometric mean trough concentration: 66.3
[4]; 300 mg q12 h, Day 7 (12-hr post-dose)
  Geometric mean trough concentration: 60.4
[4]; 300 mg q12 h, Day 7 (pre-dose)
  Geometric mean trough concentration: 63.0
[4]; Day 7, statistical analysis
  Tmax dependence on dose: independent of dose
[4]; both sexes, human, plasma, oral, Day 7, read-out: Geometric mean t1/2
  half-life: 38.8 to 82.1 h
[4]; both sexes, human, plasma, single and multiple oral doses of 100-300 mg q12h, post-dose, read-out: Median Tmax
  Tmax: 120 to 211 min
[4]; renal elimination
  Fraction of dose excreted as deuterated etifoxine: < 0.004%
[5]
  AUC as compared to etifoxine: approximately 3 fold

## CCNC1=Nc2ccc(Cl)cc2C(C)(c2ccccc2)O1 (stereo not shown) [Etifoxine, 6-chloro-2-(ethylamino)-4-methyl-4-phenyl-4H-3,1-benzoxazine]
[1]
  microsomal CLint: 309 µL/min/mg
  half-life: 22 min
[2]
  microsomal CLint: 915 µL/min/mg
  half-life: 8 min
[3]
  microsomal CLint: 657 µL/min/mg
  half-life: 11 min
[6]; continued dosing over time
  Auto-induction of CYP enzyme(s) on continued dosing: exhibits an auto-induction effect
[6]; humans
  Half-life in humans: 240 to 360 min
